# From US12539292B2, “BRM targeting compounds and associated methods of use” (Arvinas Operations, Inc., priority 2018, dated 2026)
# Where two headings read alike, the source gives them in different places.
# Biological target: T1, BRM (Homo sapiens, UniProt P51531)
# T1 construct: In-Cell Western Screen of BRM Degradation in SW1573 Cells; endogenous in cells; host or cells: SW1573
# Test: In-cell Western screen of BRM degradation in SW1573 cells (Dmax and DC50)
# Format: cell-based
# Method in brief: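 BRM levels were read by LI-COR in-cell Western after two-channel (800/680 nm) immunostaining of fixed, Triton-permeabilised SW1573 cells.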
# [1] = BRM degradation, SW1573 cells, read-out: DC50
# [2] = BRM degradation, SW1573 cells, tested at the top concentration of between 0.3 and 10 μM, read-out: Dmax (%) (% degraded)
# [3] = BRM degradation, SW1573 cells, when tested at the top concentration of between 0.3 and 10 μM, read-out: Dmax (%) (% degraded)
# [4] = SW1573, % degraded, when tested at the top concentration of between 0.3 and 10 μM, read-out: BRM Dmax (%)
# [5] = target protein degradation, read-out: BRM DC50
# [6] = BRM degradation, SW1573 cells, tested at the top concentration of between 0.3 and 10 μM
# T1 sequence (P51531 whole entry): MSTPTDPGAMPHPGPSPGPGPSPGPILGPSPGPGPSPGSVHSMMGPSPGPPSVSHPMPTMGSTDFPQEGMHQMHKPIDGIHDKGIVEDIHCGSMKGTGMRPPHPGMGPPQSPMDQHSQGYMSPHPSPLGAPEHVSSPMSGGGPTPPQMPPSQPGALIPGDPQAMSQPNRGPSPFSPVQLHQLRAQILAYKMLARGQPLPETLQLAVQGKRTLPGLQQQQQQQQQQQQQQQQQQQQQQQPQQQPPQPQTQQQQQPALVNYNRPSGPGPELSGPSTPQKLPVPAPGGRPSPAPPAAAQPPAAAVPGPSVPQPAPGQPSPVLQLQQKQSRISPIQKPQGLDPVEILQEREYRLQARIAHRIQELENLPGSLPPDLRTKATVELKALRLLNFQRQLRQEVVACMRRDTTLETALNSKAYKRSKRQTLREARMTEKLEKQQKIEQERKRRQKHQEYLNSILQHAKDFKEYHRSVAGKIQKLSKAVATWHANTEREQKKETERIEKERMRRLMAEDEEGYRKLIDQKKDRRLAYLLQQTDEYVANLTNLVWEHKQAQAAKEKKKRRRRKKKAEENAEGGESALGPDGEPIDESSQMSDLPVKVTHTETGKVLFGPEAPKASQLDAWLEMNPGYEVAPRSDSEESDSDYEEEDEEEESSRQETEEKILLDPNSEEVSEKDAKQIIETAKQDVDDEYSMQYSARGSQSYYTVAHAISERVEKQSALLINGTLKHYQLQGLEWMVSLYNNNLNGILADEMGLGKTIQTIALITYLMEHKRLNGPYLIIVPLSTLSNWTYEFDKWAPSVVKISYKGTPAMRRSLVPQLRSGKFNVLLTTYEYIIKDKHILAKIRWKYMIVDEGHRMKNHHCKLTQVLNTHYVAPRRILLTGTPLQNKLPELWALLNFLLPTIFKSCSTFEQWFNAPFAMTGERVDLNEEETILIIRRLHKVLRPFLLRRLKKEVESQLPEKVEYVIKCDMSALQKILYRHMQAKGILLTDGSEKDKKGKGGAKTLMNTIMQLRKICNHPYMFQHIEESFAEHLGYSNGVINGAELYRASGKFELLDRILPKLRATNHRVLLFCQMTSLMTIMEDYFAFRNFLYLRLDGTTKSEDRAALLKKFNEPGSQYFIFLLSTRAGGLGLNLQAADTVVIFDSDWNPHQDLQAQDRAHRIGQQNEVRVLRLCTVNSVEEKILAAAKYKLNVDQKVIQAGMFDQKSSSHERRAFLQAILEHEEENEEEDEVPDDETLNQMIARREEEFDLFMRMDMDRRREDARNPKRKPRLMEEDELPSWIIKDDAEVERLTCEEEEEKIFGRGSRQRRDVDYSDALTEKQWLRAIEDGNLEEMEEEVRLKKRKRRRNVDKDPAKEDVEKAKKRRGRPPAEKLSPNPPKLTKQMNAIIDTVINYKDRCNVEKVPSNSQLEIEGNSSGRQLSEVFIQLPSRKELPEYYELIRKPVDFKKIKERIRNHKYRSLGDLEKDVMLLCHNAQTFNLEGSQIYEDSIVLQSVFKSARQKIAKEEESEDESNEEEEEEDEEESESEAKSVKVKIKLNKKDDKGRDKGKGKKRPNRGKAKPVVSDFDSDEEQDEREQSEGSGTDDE
compound,measurement,setting,value
"Cc1cnn(C)c1-c1ccc([C@H](C)NC(=O)[C@@H]2C[C@@H](O)CN2C(=O)[C@H](c2cc(OCCN3CCN(CCOc4cc(N5C6CCC5CN(c5cc(-c7ccccc7O)nnc5N)C6)ccn4)CC3)no2)C(C)C)cc1 [compound 193, (2S,4R)-1-((2S)-2-(3-(2-(4-(2-((4-(3-(3-amino-6-(2-hydroxyphenyl)pyridazin-4-yl)-3,8-diazabicyclo[3.2.1]octan-8-yl)pyridin-2-yl)oxy)ethyl)piperazin-1-yl)ethoxy)isoxazol-5-yl)-3-methylbutanoyl)-N-((S)-1-(4-(1,4-dimethyl-1H-pyrazol-5-yl)phenyl)ethyl)-4-hydroxypyrrolidine-2-carboxamide]",DC50,[1],> 30 nM
same,Dmax,[2],> 75%
"Cc1ncsc1-c1ccc([C@H](C)NC(=O)[C@@H]2C[C@@H](O)CN2C(=O)[C@H](c2cc(OCCC3CCN(C[C@H]4C[C@H](N5CCC(C(C)n6cc(-c7cc(-c8ccccc8O)nnc7N)cn6)CC5)C4)CC3)no2)C(C)C)cc1 (stereo partly drawn) [compound 619, (2S,4R)-1-((2S)-2-(3-(2-(1-(((1r,3S)-3-(4-(1-(4-(3-amino-6-(2-hydroxyphenyl)pyridazin-4-yl)-1H-pyrazol-1-yl)ethyl)piperidin-1-yl)cyclobutyl)methyl)piperidin-4-yl)ethoxy)isoxazol-5-yl)-3-methylbutanoyl)-4-hydroxy-N-((S)-1-(4-(4-methylthiazol-5-yl)phenyl)ethyl)pyrrolidine-2-carboxamide]",DC50,"BRM degradation, SW1573 cells, Table 2D, read-out: *DC50",> 30 nM
"Cc1ncsc1-c1ccc(CNC(=O)[C@@H]2C[C@@H](O)CN2C(=O)[C@@H](NC(=O)COCCCc2ccc(C(C)n3cc(-c4cc(-c5ccccc5O)nnc4N)cn3)cc2)C(C)(C)C)cc1 (stereo partly drawn) [compound 33, (2S,4R)-1-[(2S)-2-(2-[3-[4-(1-[4-[3-amino-6-(2-hydroxyphenyl)pyridazin-4-yl]-1H-pyrazol-1-yl]ethyl)phenyl]propoxy]acetamido)-3,3-dimethylbutanoyl]-4-hydroxy-N-[[4-(4-methyl-1,3-thiazol-5-yl)phenyl]methyl]pyrrolidine-2-carboxamide]",DC50,[1],2.5 to 10 nM
same,Dmax,[3],> 75%
"Cc1ncsc1-c1ccc([C@H](C)NC(=O)[C@@H]2C[C@@H](O)CN2C(=O)[C@@H](c2cc(N3CCC(CN4CCN(C[C@H]5C[C@H](Oc6cc(N7C8CCC7CN(c7cc(-c9ccccc9O)nnc7N)C8)ccn6)C5)C(C)C4C)CC3)no2)C(C)C)cc1 (stereo partly drawn) [compound 705, (2S,4R)-1-((2R)-2-(3-(4-((4-(((1r,3r)-3-((4-(3-(3-amino-6-(2-hydroxyphenyl)pyridazin-4-yl)-3,8-diazabicyclo[3.2.1]octan-8-yl)pyridin-2-yl)oxy)cyclobutyl)methyl)-2,3-dimethylpiperazin-1-yl)methyl)piperidin-1-yl)isoxazol-5-yl)-3-methylbutanoyl)-4-hydroxy-N-((S)-1-(4-(4-methylthiazol-5-yl)phenyl)ethyl)pyrrolidine-2-carboxamide]",DC50,[1],< 2.5 nM
same,Dmax,"BRM degradation, SW1573 cells, read-out: Dmax (% degraded)",> 75%
"CC[C@H](NC(=O)[C@@H]1C[C@@H](O)CN1C(=O)[C@H](c1cc(OCCN2CCC(O[C@H]3C[C@H](Oc4cc(N5C6CCC5CN(c5cc(-c7ccccc7O)nnc5N)C6)ccn4)C3)CC2)no1)C(C)C)c1ccc(-c2scnc2C)cc1 [compound 350, (2S,4R)-1-((2S)-2-(3-(2-(4-((1r,3S)-3-((4-(3-(3-amino-6-(2-hydroxyphenyl)pyridazin-4-yl)-3,8-diazabicyclo[3.2.1]octan-8-yl)pyridin-2-yl)oxy)cyclobutoxy)piperidin-1-yl)ethoxy)isoxazol-5-yl)-3-methylbutanoyl)-4-hydroxy-N-((S)-1-(4-(4-methylthiazol-5-yl)phenyl)propyl)pyrrolidine-2-carboxamide]",DC50,[1],> 30 nM
"Cc1ncsc1-c1ccc([C@H](C)NC(=O)[C@@H]2C[C@@H](O)CN2C(=O)[C@@H](c2cc(OCCN3CCC(O[C@H]4C[C@H](C#Cc5cc(N6C7CCC6CN(c6cc(-c8ccccc8O)nnc6N)C7)ccn5)C4)CC3)no2)C(C)C)cc1 [compound 216, (2S,4R)-1-((2R)-2-(3-(2-(4-((1r,3R)-3-((4-(3-(3-amino-6-(2-hydroxyphenyl)pyridazin-4-yl)-3,8-diazabicyclo[3.2.1]octan-8-yl)pyridin-2-yl)ethynyl)cyclobutoxy)piperidin-1-yl)ethoxy)isoxazol-5-yl)-3-methylbutanoyl)-4-hydroxy-N-((S)-1-(4-(4-methylthiazol-5-yl)phenyl)ethyl)pyrrolidine-2-carboxamide]",DC50,[1],< 2.5 nM
same,Dmax,[2],> 75%
"Cc1ncsc1-c1ccc([C@H](C)NC(=O)[C@@H]2C[C@@H](O)CN2C(=O)[C@@H](c2cc(OCCN3CCN(CCC#CCn4cc(-c5cc(-c6ccccc6O)nnc5N)cn4)CC3)no2)C(C)C)cn1 [compound 352, (2S,4R)-1-((R)-2-(3-(2-(4-(5-(4-(3-amino-6-(2-hydroxyphenyl)pyridazin-4-yl)-1H-pyrazol-1-yl)pent-3-yn-1-yl)piperazin-1-yl)ethoxy)isoxazol-5-yl)-3-methylbutanoyl)-4-hydroxy-N-((S)-1-(6-(4-methylthiazol-5-yl)pyridin-3-yl)ethyl)pyrrolidine-2-carboxamide]",DC50,[1],< 2.5 nM
same,Dmax,[2],> 75%
"Cc1ncsc1-c1ccc([C@H](C)NC(=O)[C@@H]2C[C@@H](O)CN2C(=O)[C@@H](c2cc(OCCCN3CCN(CCCOc4cc(N5C6CCC5CN(c5cc(-c7ccccc7O)nnc5N)C6)ccn4)CC3)no2)C(C)C)cc1 [compound 385, (2S,4R)-1-((2R)-2-(3-(3-(4-(3-((4-(3-(3-amino-6-(2-hydroxyphenyl)pyridazin-4-yl)-3,8-diazabicyclo[3.2.1]octan-8-yl)pyridin-2-yl)oxy)propyl)piperazin-1-yl)propoxy)isoxazol-5-yl)-3-methylbutanoyl)-4-hydroxy-N-((S)-1-(4-(4-methylthiazol-5-yl)phenyl)ethyl)pyrrolidine-2-carboxamide]",Dmax,[4],> 75%
same,DC50,[5],< 2.5 nM
"Cc1ncsc1-c1ccc([C@H](C)NC(=O)[C@@H]2C[C@@H](O)CN2C(=O)[C@@H](c2cc(OCCC#Cc3ccc(OC4CC(Oc5cc(N6C7CC[C@@H]6CN(c6cc(-c8ccccc8O)nnc6N)C7)ccn5)C4)cn3)no2)C(C)C)cc1 (stereo partly drawn) [compound 227, (2S,4R)-1-((2R)-2-(3-((4-(5-((1r,3r)-3-((4-(3-(3-amino-6-(2-hydroxyphenyl)pyridazin-4-yl)-3,8-diazabicyclo[3.2.1]octan-8-yl)pyridin-2-yl)oxy)cyclobutoxy)pyridin-2-yl)but-3-yn-1-yl)oxy)isoxazol-5-yl)-3-methylbutanoyl)-4-hydroxy-N-((S)-1-(4-(4-methylthiazol-5-yl)phenyl)ethyl)pyrrolidine-2-carboxamide]",DC50,[1],< 2.5 nM
same,Dmax (%) (% degraded),[6],A (A > 75)
"Cc1ncsc1-c1ccc([C@H](C)NC(=O)[C@@H]2C[C@@H](O)CN2C(=O)[C@@H](c2cc(OCCOc3ccc(C(C)n4cc(-c5cc(-c6ccccc6O)nnc5N)cn4)cn3)no2)C(C)C)cc1 (stereo partly drawn) [compound 82, (2S,4R)-1-((2R)-2-(3-(2-((5-(1-(4-(3-amino-6-(2-hydroxyphenyl)pyridazin-4-yl)-1H-pyrazol-1-yl)ethyl)pyridin-2-yl)oxy)ethoxy)isoxazol-5-yl)-3-methylbutanoyl)-4-hydroxy-N-((S)-1-(4-(4-methylthiazol-5-yl)phenyl)ethyl)pyrrolidine-2-carboxamide]",DC50,[1],< 2.5 nM
same,Dmax,[3],> 75%
"Cc1ncsc1-c1ccc([C@H](C)NC(=O)[C@@H]2C[C@@H](O)CN2C(=O)C(c2cc(OCCn3cc(C(C)n4cc(-c5cc(-c6ccccc6O)nnc5N)cn4)ccc3=O)no2)C(C)C)cc1 (stereo in doubt) [compound 162, (2S,4R)-1-((2R)-2-(3-(2-(5-(1-(4-(3-amino-6-(2-hydroxyphenyl)pyridazin-4-yl)-1H-pyrazol-1-yl)ethyl)-2-oxopyridin-1(2H)-yl)ethoxy)isoxazol-5-yl)-3-methylbutanoyl)-4-hydroxy-N-((S)-1-(4-(4-methylthiazol-5-yl)phenyl)ethyl)pyrrolidine-2-carboxamide]",DC50,[1],> 30 nM
same,Dmax (%) (% degraded),[6],A (A > 75)
"(2S,4R)-1-((2R)-2-(3-(2-(4-((1r,3R)- 3-((4-(3-(3-amino-6-(2- hydroxyphenyl)pyridazin-4-yl)-3,8- diazabicyclo[3.2.1]octan-8- yl)pyridin-2- yl)oxy)cyclobutoxy)piperidin-1- yl)ethoxy)isoxazol-5-yl)-3- methylbutanoyl)-4-hydroxy-N-(4-(4- methylthiazol-5- yl)benzyl)pyrrolidine-2-carboxamide [compound 146]",DC50,[1],< 2.5 nM
same,Dmax (%) (% degraded),"BRM degradation, SW1573 cells, when tested at the top concentration of between 0.3 and 10 μM",A (A > 75)
"Cc1ncsc1-c1ccc([C@H](C)NC(=O)[C@@H]2C[C@@H](O)CN2C(=O)[C@@H](c2cc(OCCN[C@H]3CC[C@H](O[C@H]4C[C@H](Oc5cc(N6C7CCC6CN(c6cc(-c8ccccc8O)nnc6N)C7)ccn5)C4)CC3)no2)C(C)C)cn1 [compound 396, (2S,4R)-1-((2R)-2-(3-(2-(((1R,4R)-4-((1r,3R)-3-((4-(3-(3-amino-6-(2-hydroxyphenyl)pyridazin-4-yl)-3,8-diazabicyclo[3.2.1]octan-8-yl)pyridin-2-yl)oxy)cyclobutoxy)cyclohexyl)amino)ethoxy)isoxazol-5-yl)-3-methylbutanoyl)-4-hydroxy-N-((S)-1-(6-(4-methylthiazol-5-yl)pyridin-3-yl)ethyl)pyrrolidine-2-carboxamide]",Dmax,[4],> 75%
same,DC50,[5],2.5 to 10 nM
